Non-standard residues stand in square brackets, D forms with d. Residues, ends and D or L forms follow the SMILES beside them. No end group written: not given here. Aib = CC(C)(N)C(=O)O

In data set [1] the test system is mice receiving total body irradiation. As to conditions: cited from earlier work.
A further data set has as its system BV2 microglial cells. As to conditions: for IC50: read-out: IC50, inhibition of nitric oxide release, BV2 cells, LPS for 40 hours, approximate.
Data set [2] is described as follows: Maximum tolerated dose, tail vein injection. As to conditions: mouse, in vivo, intravenous, highest dose with death of no mice in 24 hours, tail vein. As for the experimental part: (§1) Candidate compounds are then be screened in our closed head injury model of traumatic brain injury by intravenous dosing at 30 minutes post injury. Novel compounds are initially tested at one half their maximum tolerated dose (0.5×MTD). The maximum tolerated dose (MTD) is the dose of peptide given in a tail vein injection that results in no death of mice. Death is defined as a complete lack of breathing and complete unresponsiveness to external stimuli such as tail pinch and/or toe pinch for a period of 10 or more minutes. Animals are given an initial dose of 1 mg/kg of peptide analog or non-peptide mimetic and observed continuously for 15 minutes and then at 15 minute intervals for 2 hours and then at 1 hour intervals for 4 hours more. Animals are also observed at 24 hours post injection.
(§2) The maximum tolerated dose is the maximum dose at which no animals die at any of these observation times. As an example of this procedure, the MTD is determined empirically by initially dosing groups of 3 mice at 1 mg/kg. If this dose is tolerated, then another group of 3 mice is dosed at 3 mg/kg. If this dose is tolerated, then another group of 3 mice is dosed at 9 mg/kg, etc. If, for example, 9 mg/kg is not tolerated because 1 or more animal died, then doses in-between 3 mg/kg and 9 mg/kg are investigated until the MTD is found. Once the MTD is empirically determined, it is confirmed in another group of 7 mice for a total of 10 mice being tested at the MTD and all of which must not die to confirm that this is the MTD.

The next data set deals with mice. Kind of data set: Maximum tolerated dose, tail vein injection. The note with it: mouse, in vivo. As for the experimental part: as §1, §2
The subject of data set [3] is RAW 264.7 macrophages. Nature of the data set: NO production and iNOS mRNA in C. rodentium-stimulated macrophages. Type of data set: cell-based, mouse. As to conditions: C. rodentium lysates; COG1410 2 μM, COG4502 0.1-5 μM. The source says: RAW 264.7 cells were stimulated with French-pressed lysates of C. rodentium at a multiplicity of infection of 100. […] B, RT-PCR for iNOS.
We used bacterial lysates to more closely mimic the bacterial products to which lamina propria macrophages are likely to be exposed.

For data set [4] the following is noted: mouse, in vivo.
From the text: We have employed a similar LC/MS procedure to identify fragments of COG1410 that may arise by degradation processes.
Data set [5] concerns RAW 264.7 macrophages.
The next data set is described as follows: in vivo. As to conditions: male, C57B1/6, mouse, 0.4 mg/kg.
The test system of data set [6] is mice with traumatic brain injury. Nature of the data set: Closed head injury model of traumatic brain injury (rotorod, Morris Water Maze). A general note: Falling from the rotarod earlier than controls is read as motor impairment.
Method: C57Bl/6J male mice (The Jackson Laboratory, ME), 12-16 weeks of age and weighing 24-32 g, are used for all experiments. Anesthesia is first induced with isoflurane in 30% O2/balance N2. The trachea is intubated and the lungs mechanically ventilated with 1.6% isoflurane in 30% O2/balance N2. Temperature is monitored with a rectal probe and maintained at 36.5° C. with a heat lamp. The right internal jugular vein is cannulated with silicone catheter. […] Intubated animals are then placed prone on a molded acrylic cast (FIG. 6A). […] The scalp is incised and the skull exposed. A concave 3 mm metallic disc is secured to the skull surface (with the concave surface in juxtaposition to the skull) by an adhesive. […] The disc is placed directly midline just caudal to bregma (FIG. 6B). […] The mice are positioned in a stereotactic frame. Although the stereotactactic frame helps to stabilize the animal and exactly calibrate the vertical displacement on impact (3 mm), ear bars are not used due to a much higher rate of skull fracture (or brainstem injury if the head rotates around the axis of the ear bars during impact). The piston is discharged at 6.8±0.2 m/s so as to impact the skull in the acrylic mold to move a maximum of approximately 3 mm (FIG. 6C). Inspired isoflurane is decreased to 0.7% immediately after impact. The scalp was infiltrated with lidocaine and closed with suture. Ophthalmic ointment was applied to the eyes for protection. The incidence of skull fracture is low (approximately 10%), as the metal disk helps to diffuse the impact, and the absence of ear bar fixation allows for displacement of the entire head. Mice were excluded if a depressed skull fracture was observed (incidence of approximately 10%). The animals are allowed to recover spontaneous ventilation then extubated. […] In these mice, arterial blood pressure, blood gas and glucose measurement at baseline, immediately after injury, and 15 minutes after injury are monitored during the recovery period.
Briefly, baseline performance on rotorod is established before the mice are intubated, the skin over the scalp reflected and a controlled cortical impact from a pneumatic impactor given on the midline. The skin is closed with surgical clips and the animals are constantly monitored until awake from anesthesia and then hourly for the next 4 hours. […] Performance on rotorod is tested at 24 hours post impaction and then every day for 5 days and data is presented as described. Groups of 12 mice are used for each compound at 0.5×MTD. […] Novel peptides and non-peptide analogs are also given by tail vein injection.
Daily Rotarod (RR) testing was used to assess short term motor and cerebellar deficit following head injury (Hamm et al., 1994). Mice were held by their tails and placed on the RR facing the wall by using gentle swinging motion while running in a constant speed mode.
The subject of data set [7] is C57BL/6J mice with MOG-induced EAE. Nature of the data set: MOG-induced experimental autoimmune encephalomyelitis (EAE). The note with it: preliminary data. As for the experimental part:
EAE was induced in mice following the method of Feinstein et al. (Feinstein, Galea, et al. 2002) 1) two s.c. injections, one on each flank of the hind legs with 300 μg MOG35-55 peptide in 0.1 ml PBS emulsified in an equal volume of CFA containing 5 mg/ml of Mycobacterium tuberculosis H37RA (Difco, St. Louis, Mo.) were given on Day 0.2) Pertussis toxin (200 ng per mouse in 0.1 ml PBS) was given i.p. immediately and 48 h after first MOG injection. 3) a booster immunization with an identical emulsion, route of administration and location was given on Day 7.
Following the encephalitogenic challenge, mice were monitored daily and neurological impairment was evaluated by clinical score (C.S.) as follows: 0, no clinical signs of EAE; 1, limp tail; 2, flaccid tail and abnormal gait (ataxia and/or paresis of hind limbs); 3, severe hind limb paresis; 4, complete paralysis with hind body; and 5, moribund or death.
Mice were anesthetized, bled, and perfused with 25 ml PBS and 25 ml 4% paraformaldehyde in buffered PBS. Brains and spinal cords were dissected out from 3 mice with a clinical score of 0 and another 3 mice with a clinical score of 4 on day 30 post-immunization. Tissues were post-fixed in 4% paraformaldehyde for another 24 h and then stored in 1×PBS with 0.1% sodium azide. Fixed tissues were embedded in paraffin and 5 μm thick sections were cut from brain, the brain stem and three different levels of spinal cord (cervical, thoracic and lumbar). Sections were stained with hematoxylin/eosin for evidence of inflammation and Luxol fast blue (for demyelination). The severity of inflammation was evaluated using the following criteria: 0, no inflammation; 1, cellular infiltrates only in the perivascular areas and meninges; 2, mild cellular infiltrates only in parenchyma (1-10/section); 3, moderate cellular infiltrates in parenchyma (11-100/section); 4, marked cellular infiltrates in parenchyma (>100 section).
In total, 10 doses of peptides were given.

In data set [8] the test system is BV2 murine microglial cells. As to conditions: read-out: IC50 NO; 50% suppression of NO production, normalized on cell viability. Here is the method: For Applicants preliminary work, the two most common PTDs, TAT and penetratin, were used.
Cell Culture: BV-2, a well-characterized murine microglial cell line (Bochinni, 1992), is cultured in high glucose content DMEM supplemented with 1% penicillin/streptomycin, 10% fetal calf serum, 1% nonessential amino acids, and 1% sodium pyruvate. Cells are grown to confluency; trypsinized; spun down; resuspended in serum-free OptiMEM containing 1% N2 supplement, 1% penicillin/streptomycin, 1% nonessential amino acids, and 1% sodium pyruvate; and plated at a concentration of 20,000 cells/well to remove any nonadherent cells and serum.
Supernatant is collected 24 and/or 48 h after LPS stimulation and assayed for nitrite.
Quantification of Nitric Oxide (NO): Accumulation of nitrite (stable end product of NO production) in the medium is measured by colometric Griess reagent system (Promega); the absorbance is determined at 540 nm.
Cell Viability Assay: Cell viability is measured using a nonradioactive cell viability assay (cell titer 96 AQ, Promega). The assay measures the bioreduction of MTS (3-(4,5-dimethylthiazole-2-)-5-(3-carboxymethoxyphenyl)-2-(4-sulfophenyl)-2H-tetrazolium by viable cells into formazan. The absorbance of the calorimetric assay is measured at λ 490 nm. Viability is assessed and used to normalize the nitrite data.

Data set [9] deals with cellular receptor bound by the apoE 133-149 peptide (on cells, 250,000 cells per well). Nature of the data set: competition with biotinylated apoE 133-149 for binding to whole cells (250,000 cells/well, 4 C), 125I-streptavidin detection.

`NCCCNCCSP(=O)(O)O` [amifostene, reference compound]: in data set [1] (30 days post-irradiation, given immediately before irradiation (Hall 2000)), the Dose reduction factor was 2.7.

As a reminder, the IC50 is the concentration that gives 50% inhibition. The term MTD denotes the largest dose that counted as tolerated. For orientation: half-life means how long it takes for the measured level to halve. Read a low half-life as fast loss. As for `CC(=O)N[C@@H](C)C(=O)N[C@@H](CO)C(=O)NC(C)(C)C(=O)N[C@@H](CC(C)C)C(=O)N[C@@H](CCCNC(=N)N)C(=O)N[C@@H](CCCCN)C(=O)N[C@@H](CC(C)C)C(=O)NC(C)(C)C(=O)N[C@@H](CCCCN)C(=O)N[C@@H](CCCNC(=N)N)C(=O)N[C@@H](CC(C)C)C(=O)N[C@@H](CC(C)C)C(N)=O` [COG1410, Ac-AS-Aib-LRKL-Aib-KRLL-NH2] (Ac-AS[Aib]LRKL[Aib]KRLL-NH2), the “Biologic Activity relative to COG133” value with BV2 microglial cells (Table 2, preliminary data) is recorded as greater than 5x x COG133. In addition, in the data set on BV2 microglial cells, the IC50 was roughly 2 µM. In addition, the MTD at 24 h in data set [2] came to 8 mg/kg. For the same molecule, the “Therapeutic Index (ratio of the MTD to the MED)” value with mice was 26. In addition, the “NO production (nitrite levels) in macrophage supernatants” value in the data set with RAW 264.7 macrophages [3] is recorded as “inhibition of NO production”. Also, the “Major metabolite in plasma” value in [4] is “acetyl-AS-Aib-LRKL-Aib-KR”. In addition, the “Concentration at which cell toxicity was noted” value in the data set on RAW 264.7 macrophages [5] was no less than 5 µM. This molecule also displayed a half-life in “in vivo” of 2 min. Besides, the “Neuroprotection (rotorod) when administered 120 minutes after TBI” value in [6] (120 minutes after TBI, vs saline) was “neuroprotective”. Also, the “Minimum effective dose (MED)” value in data set [6] (lowest dose with statistically significant improvement vs vehicle, preliminary) was 0.3 mg/kg. In data set [6] (mouse, in vivo), the “Gain in therapeutic window as compared to COG133” value came to 4 fold.

One may read the EC50 as the concentration at which the effect is half-maximal. Turning to `CC(=O)N[C@@H](CC(C)C)C(=O)N[C@@H](CCCNC(=N)N)C(=O)N[C@H](C(=O)N[C@@H](CCCNC(=N)N)C(=O)N[C@@H](CC(C)C)C(=O)N[C@@H](C)C(=O)N[C@@H](CO)C(=O)N[C@@H](Cc1c[nH]cn1)C(=O)N[C@@H](CC(C)C)C(=O)N[C@@H](CCCNC(=N)N)C(=O)N[C@@H](CCCCN)C(=O)N[C@@H](CC(C)C)C(=O)N[C@@H](CCCNC(=N)N)C(=O)N[C@@H](CCCCN)C(=O)N[C@@H](CCCNC(=N)N)C(=O)N[C@@H](CC(C)C)C(=O)N[C@@H](CC(C)C)C(N)=O)C(C)C` [COG133], in the data set on BV2 microglial cells (read-out: EC50 (50% reduction of NO or TNFα release), LPS induced BV2 cells), the EC50 came out at 3.5 µM. The IC50 is roughly 2 µM in the data set with BV2 microglial cells and 25 µM in [8]. In the data set on mice, the “Therapeutic Index (ratio of the MTD to the MED)” value amounted to 3.5. Further, in data set [7], the “Tolerability in mice with EAE” value was “well tolerated”. The molecule also had a half-life in “in vivo” of 8 min.

In turn, LRVRLASHLRKLRKRLL (not fully specified) [apoE 133-149 peptide (COG133), unlabeled] showed an IC50 in data set [9] of 4 µM.

B1: rIL11: rIL11 given to irradiated mice (Van der Meeren et al. 2002) (protein, UniProt P20809 22-199, looked up)
Interleukin-11: PGPPPGPPRVSPDPRAELDSTVLLTRSLLADTRQLAAQLRDKFPADGDHNLDSLPTLAMSAGALGALQLPGVLTRLRADLLSYLRHVQWLRRAGGSSLKTLEPELGTLQARLDRLLRRLQLLMSRLALPQPPPDPPAPPLAPPSSAWGGIRAAHAILGGLHLTLDWAVRGLLLLKTRL
Regarding B1, the “Survival rate at 30 days post-TBI” value in data set [1] (8 Gy, 2 hour delay, every day for 5 days (Van der Meeren et al. 2002)) is 74%.

These data come from patent US20090042783A1, “APO E ANALOGS AND METHODS FOR THEIR USE” (priority 2004, published 2009).
